Molecular target: T1, recombinant human NAE enzyme (Homo sapiens, UniProt Q8TBC4)
T1 construct: His (N); made in house; host or cells: Sf9 insect cells (baculovirus, Bac-to-Bac)
T1 sequence (Q8TBC4 1-463): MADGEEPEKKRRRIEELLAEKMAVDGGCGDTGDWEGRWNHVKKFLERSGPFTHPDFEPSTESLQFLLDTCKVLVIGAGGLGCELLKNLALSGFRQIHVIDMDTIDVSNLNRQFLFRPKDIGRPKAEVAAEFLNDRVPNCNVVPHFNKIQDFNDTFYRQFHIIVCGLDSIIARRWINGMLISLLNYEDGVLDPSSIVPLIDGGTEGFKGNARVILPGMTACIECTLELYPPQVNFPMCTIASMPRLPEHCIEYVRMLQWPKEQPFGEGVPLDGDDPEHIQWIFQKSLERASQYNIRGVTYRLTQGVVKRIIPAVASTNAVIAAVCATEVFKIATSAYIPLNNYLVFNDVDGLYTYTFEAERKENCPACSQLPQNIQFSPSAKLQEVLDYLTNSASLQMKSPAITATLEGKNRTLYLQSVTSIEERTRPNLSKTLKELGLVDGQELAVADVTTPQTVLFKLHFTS
T1 sequence (Q13564 1-534 partner): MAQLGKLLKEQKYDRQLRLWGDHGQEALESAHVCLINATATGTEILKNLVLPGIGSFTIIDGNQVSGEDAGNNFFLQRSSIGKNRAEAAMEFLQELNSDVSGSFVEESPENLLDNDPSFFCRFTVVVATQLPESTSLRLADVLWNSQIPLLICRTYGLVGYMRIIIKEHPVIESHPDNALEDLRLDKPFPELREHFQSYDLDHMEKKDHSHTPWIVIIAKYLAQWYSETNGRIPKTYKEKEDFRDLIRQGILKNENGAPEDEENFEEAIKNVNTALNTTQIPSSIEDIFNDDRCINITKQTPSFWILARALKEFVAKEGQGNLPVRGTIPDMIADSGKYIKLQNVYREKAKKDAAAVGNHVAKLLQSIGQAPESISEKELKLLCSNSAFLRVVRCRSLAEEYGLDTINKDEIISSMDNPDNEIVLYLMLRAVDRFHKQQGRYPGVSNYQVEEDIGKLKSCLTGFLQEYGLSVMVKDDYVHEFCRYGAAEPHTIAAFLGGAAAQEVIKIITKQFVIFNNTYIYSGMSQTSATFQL
Test: Nedd8-Activating Enzyme (NAE) HTRF Assay
Format: biochemical
Settings: 20 μM ATP
Outline: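 Recombinant human NAE (NAEα/His-NAEβ from Sf9 cells) at 0.20 nM with 20 μM ATP, 0.01 μM Ubc12-GST and 0.075 μM Nedd8-Flag in HEPES pH 7.5, 105 min at 24° C. EDTA stop; Eu-anti-FLAG/APC-anti-GST HTRF read after 1 h.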

| Compound | IC50 (bound given in nM) | IC50 (bound given in μM) |
| --- | --- | --- |
| NS(=O)(=O)OC[C@@H]1C[C@@H](Oc2ncnc3nc(-c4cncc5ccccc45)[nH]c23)C[C@@H]1O [Compound I-112, {(1S,2S,4R)-2-hydroxy-4-[(8-isoquinolin-4-yl-7H-purin-6-yl)oxy]cyclopentyl}methyl sulfamate] | ≤ 500 nM |  |
| NS(=O)(=O)OC[C@H]1C[C@@H](Nc2nc(N[C@H]3CCc4ccccc43)ncc2F)[C@H](O)[C@@H]1O [Compound I-113, [(1R,2R,3S,4R)-4-({2-[(1S)-2,3-dihydro-1H-inden-1-ylamino]-5-fluoropyrimidin-4-yl}-amino)-2,3-dihydroxycyclopentyl]methyl sulfamate] | > 500 nM | < 10000 nM |
| NS(=O)(=O)OC[C@@H]1C[C@@H](Oc2cc(-c3ccccc3)ncn2)C[C@@H]1O [Compound I-114, {(1S,2S,4R)-2-hydroxy-4-[(6-phenylpyrimidin-4-yl)oxy]cyclopentyl}methyl sulfamate] | > 500 nM | < 10000 nM |
| CO[C@H]1Cc2ccccc2[C@H]1Nc1cc(O[C@@H]2C[C@@H](COS(N)(=O)=O)[C@@H](O)C2)ncn1 [Compound I-115, {(1S,2S,4R)-2-hydroxy-4-[(6-{[(1R,2S)-2-methoxy-2,3-dihydro-1H-inden-1-yl]amino}pyrimidin-4-yl)oxy]cyclopentyl}methyl sulfamate] | ≤ 500 nM |  |
| NS(=O)(=O)OC[C@@H]1C[C@@H](Nc2ncnc3nc(-c4cccc5c4OCC5)[nH]c23)C[C@@H]1O [Compound I-117, ((1S,2S,4R)-4-{[8-(2,3-dihydro-1-benzofuran-7-yl)-7H-purin-6-yl]amino}-2-hydroxycyclopentyl)methyl sulfamate] | ≤ 500 nM |  |
| NS(=O)(=O)OC[C@H]1C[C@@H](Nc2cc(Nc3cccc4c3CCCC4)ncn2)[C@H](O)[C@@H]1O [Compound I-118, ((1R,2R,3S,4R)-2,3-dihydroxy-4-{[6-(5,6,7,8-tetrahydronaphthalen-1-ylamino)pyrimidin-4-yl]amino}cyclopentyl)methyl sulfamate] | ≤ 500 nM |  |
| NS(=O)(=O)OC[C@@H]1C[C@@H](Oc2cc(OCc3cccc4ccccc34)ncn2)C[C@@H]1O [Compound I-119, ((1S,2S,4R)-2-hydroxy-4-{[6-(1-naphthylmethoxy)pyrimidin-4-yl]oxy}cyclopentyl)methyl sulfamate] | > 500 nM | < 10000 nM |
| NS(=O)(=O)OC[C@@H]1C[C@@H](Oc2cc(N3Cc4ccccc4C3)ncn2)C[C@@H]1O [Compound I-120, ((1S,2S,4R)-4-{[6-(1,3-dihydro-2H-isoindol-2-yl)pyrimidin-4-yl]oxy}-2-hydroxycyclopentyl)methyl sulfamate] | > 500 nM | < 10000 nM |
| NS(=O)(=O)OC[C@@H]1C[C@@H](Nc2ncnc3[nH]c(C4CCCc5ccccc54)nc23)C[C@@H]1O (stereo partly drawn) [Compound I-121, ((1S,2S,4R)-2-hydroxy-4-{[8-(1,2,3,4-tetrahydronaphthalen-1-yl)-9H-purin-6-yl]amino}cyclopentyl)methyl sulfamate] | ≤ 500 nM |  |
| NS(=O)(=O)OC[C@@H]1C[C@@H](Nc2ncnc3[nH]c(-c4ccccc4C(F)(F)F)nc23)C[C@@H]1O [Compound I-122, [(1S,2S,4R)-2-hydroxy-4-({8-[2-(trifluoromethyl)phenyl]-9H-purin-6-yl}amino)cyclopentyl]methyl sulfamate] | ≤ 500 nM |  |
| CN(c1ncnc2c1nc(-c1ccccc1)n2C)[C@@H]1C[C@@H](COS(N)(=O)=O)[C@@H](O)C1 [Compound I-123, {(1S,2S,4R)-2-hydroxy-4-[methyl(9-methyl-8-phenyl-9H-purin-6-yl)amino]cyclopentyl}-methyl sulfamate] | > 500 nM | < 10000 nM |
| CC1(C)C[C@H](Nc2cc(O[C@@H]3C[C@@H](COS(N)(=O)=O)[C@@H](O)C3)ncn2)c2ccccc21 [Compound I-124, {(1S,2S,4R)-4-[(6-{[(1S)-3,3-dimethyl-2,3-dihydro-1H-inden-1-yl]amino}pyrimidin-4-yl)oxy]-2-hydroxycyclopentyl}methyl sulfamate] | ≤ 500 nM |  |
| CO[C@H]1Cc2ccccc2[C@H]1Nc1ncnc(N[C@@H]2C[C@@H](COS(N)(=O)=O)[C@@H](O)C2)n1 [Compound I-125, {(1S,2S,4R)-2-hydroxy-4-[(4-{[(1R,2S)-2-methoxy-2,3-dihydro-1H-inden-1-yl]amino}-1,3,5-triazin-2-yl)amino]cyclopentyl}methyl sulfamate] | ≤ 500 nM |  |
| NS(=O)(=O)OC[C@@H]1C[C@@H](Nc2ncnc3[nH]c(-c4cccc5c4CCCC5)nc23)C[C@@H]1O [Compound I-126, ((1S,2S,4R)-2-hydroxy-4-{[8-(5,6,7,8-tetrahydronaphthalen-1-yl)-9H-purin-6-yl]amino}cyclopentyl)methyl sulfamate] | ≤ 500 nM |  |
| NS(=O)(=O)OC[C@@H]1C[C@@H](Oc2cc(NC3CCCC3)ncn2)C[C@@H]1O [Compound I-127, ((1S,2S,4R)-4-{[6-(cyclopentylamino)pyrimidin-4-yl]oxy}-2-hydroxycyclopentyl)methyl sulfamate] | > 500 nM | < 10000 nM |
| NS(=O)(=O)OC[C@@H]1C[C@@H](Nc2ncnc3[nH]c(C4CCCCC4)nc23)C[C@@H]1O [Compound I-128, {(1S,2S,4R)-4-[(8-cyclohexyl-9H-purin-6-yl)amino]-2-hydroxycyclopentyl}methyl sulfamate] | ≤ 500 nM |  |
| NS(=O)(=O)OC[C@@H]1C[C@@H](Oc2ncnc3nc(-c4cnn(Cc5ccccc5)c4)[nH]c23)C[C@@H]1O [Compound I-129, ((1S,2S,4R)-4-{[8-(1-benzyl-1H-pyrazol-4-yl)-7H-purin-6-yl]oxy}-2-hydroxycyclopentyl)methyl sulfamate] | ≤ 500 nM |  |
| Cn1c(-c2ccccc2)nc2c(N[C@@H]3C[C@@H](COS(N)(=O)=O)[C@@H](O)C3)ncnc21 [Compound I-130, {(1S,2S,4R)-2-hydroxy-4-[(9-methyl-8-phenyl-9H-purin-6-yl)amino]cyclopentyl}methyl sulfamate] | ≤ 500 nM |  |
| CC(C)(C)c1nc2c(N[C@@H]3C[C@@H](COS(N)(=O)=O)[C@@H](O)C3)ncnc2[nH]1 [Compound I-131, {(1S,2S,4R)-4-[(8-tert-butyl-9H-purin-6-yl)amino]-2-hydroxycyclopentyl}methyl sulfamate] | ≤ 500 nM |  |
| NS(=O)(=O)OC[C@@H]1C[C@@H](Oc2cc(Cc3ccccc3)ncn2)C[C@@H]1O [Compound I-132, {(1S,2S,4R)-4-[(6-benzylpyrimidin-4-yl)oxy]-2-hydroxycyclopentyl}methyl sulfamate] | > 500 nM | < 10000 nM |
| COc1ccccc1-c1nc2c(N[C@@H]3C[C@@H](COS(N)(=O)=O)[C@@H](O)C3)ncnc2[nH]1 [Compound I-133, ((1S,2S,4R)-2-hydroxy-4-{[8-(2-methoxyphenyl)-9H-purin-6-yl]amino}cyclopentyl)methyl sulfamate] | ≤ 500 nM |  |
| CC1(C)C[C@H](Nc2ncnc(N[C@@H]3C[C@@H](COS(N)(=O)=O)[C@@H](O)C3)n2)c2ccccc21 [Compound I-134, {(1S,2S,4R)-4-[(4-{[(1S)-3,3-dimethyl-2,3-dihydro-1H-inden-1-yl]amino}-1,3,5-triazin-2-yl)amino]-2-hydroxycyclopentyl}methyl sulfamate] | ≤ 500 nM |  |
| Cc1cccc(Sc2nc3ncnc(O[C@@H]4C[C@@H](COS(N)(=O)=O)[C@@H](O)C4)c3[nH]2)c1 [Compound I-136, [(1S,2S,4R)-2-hydroxy-4-({8-[(3-methylphenyl)sulfanyl]-7H-purin-6-yl}oxy)cyclopentyl]methyl sulfamate] | ≤ 500 nM |  |
| CN(C)c1ccccc1-c1nc2c(N[C@@H]3C[C@@H](COS(N)(=O)=O)[C@@H](O)C3)ncnc2[nH]1 [Compound I-137, [(1S,2S,4R)-4-({8-[2-(dimethylamino)phenyl]-9H-purin-6-yl}amino)-2-hydroxycyclopentyl]methyl sulfamate] | ≤ 500 nM |  |
| OC[C@@H]1C[C@@H](Nc2ncnc3[nH]c(-c4cccc5c4OCCO5)nc23)C[C@@H]1O [Compound I-138, (1S,2S,4R)-4-{[8-(2,3-dihydro-1,4-benzodioxin-5-yl)-9H-purin-6-yl]amino}-2-(hydroxymethyl)cyclopentanol] | > 500 nM | < 10000 nM |
| NS(=O)(=O)OC[C@@H]1C[C@@H](Oc2ncnc3nc(-c4ccc(N5CCCC5)c5ccccc45)[nH]c23)C[C@@H]1O [Compound I-139, ((1S,2S,4R)-2-hydroxy-4-{[8-(4-pyrrolidin-1-yl-1-naphthyl)-7H-purin-6-yl]oxy}cyclopentyl)methyl sulfamate] | ≤ 500 nM |  |
